Measurements: publication PMC11589570, “Critical assessment of LC3/GABARAP ligands used for degrader development and ligandability of LC3/GABARAP binding pockets” (Nature Communications, 2024)
Read-outs that look alike come from different tables or passages of the source.

Biological target: LC3B (Homo sapiens, UniProt Q9GZQ8)
Details: for CSP: LC3B:TH152 1:2

CSP induced (G85 HN resonance, molar ratio TH152:LC3B 0.125): 0.02291
CSP induced (G85 HN resonance, molar ratio TH152:LC3B 0.25): 0.03839
CSP induced (G85 HN resonance, molar ratio TH152:LC3B 0.5): 0.1193
CSP induced (G85 HN resonance, molar ratio TH152:LC3B 1): 0.155
CSP induced (G85 HN resonance, molar ratio TH152:LC3B 2): 0.2522
CSP induced (G85 HN resonance, molar ratio TH152:LC3B 4): 0.2665
CSP induced (K51 HN resonance, molar ratio TH152:LC3B 0.125): 0.02268
CSP induced (K51 HN resonance, molar ratio TH152:LC3B 0.25): 0.07734
CSP induced (K51 HN resonance, molar ratio TH152:LC3B 0.5): 0.1341
CSP induced (K51 HN resonance, molar ratio TH152:LC3B 1): 0.2088
CSP induced (K51 HN resonance, molar ratio TH152:LC3B 2): 0.2565
CSP induced (K51 HN resonance, molar ratio TH152:LC3B 4): 0.2885
CSP (LC3B residue A75): 0.013 ppm
CSP (LC3B residue A78): 0.040 ppm
CSP (LC3B residue A114): 0.035 ppm
CSP (LC3B residue D19): 0.028 ppm
CSP (LC3B residue D48): 0.348 ppm
CSP (LC3B residue D56): 0.088 ppm
CSP (LC3B residue D104): 0.039 ppm
CSP (LC3B residue D106): 0.043 ppm
CSP (LC3B residue E14): 0.013 ppm
CSP (LC3B residue E18): 0.013 ppm
CSP (LC3B residue E25): 0.075 ppm
CSP (LC3B residue E36): 0.143 ppm
CSP (LC3B residue E41): 0.015 ppm
CSP (LC3B residue E62): 0.105 ppm
CSP (LC3B residue E97): 0.079 ppm
CSP (LC3B residue E100): 0.117 ppm
CSP (LC3B residue E102): 0.024 ppm
CSP (LC3B residue E105): 0.037 ppm
CSP (LC3B residue E117): 0.088 ppm
CSP (LC3B residue F07): 0.134 ppm
CSP (LC3B residue F13): 0.017 ppm
CSP (LC3B residue F52): 0.303 ppm
CSP (LC3B residue F108): 0.042 ppm
CSP (LC3B residue F119): 0.051 ppm
CSP (LC3B residue G40, estimated): 0.060 ppm
CSP (LC3B residue G107): 0.021 ppm
CSP (LC3B residue H27): 0.041 ppm
CSP (LC3B residue H57): 0.104 ppm
CSP (LC3B residue I23): 0.063 ppm
CSP (LC3B residue I31): 0.112 ppm
CSP (LC3B residue I34): 0.268 ppm
CSP (LC3B residue I35): 0.113 ppm
CSP (LC3B residue I64): 0.179 ppm
CSP (LC3B residue I66): 0.103 ppm
CSP (LC3B residue I67): 0.053 ppm
CSP (LC3B residue K08): 0.049 ppm
CSP (LC3B residue K30): 0.042 ppm
CSP (LC3B residue K39): 0.108 ppm
CSP (LC3B residue K42): 0.061 ppm
CSP (LC3B residue K49): 0.162 ppm
CSP (LC3B residue K51): 0.313 ppm
CSP (LC3B residue K65): 0.162 ppm
CSP (LC3B residue K103): 0.084 ppm
CSP (LC3B residue L22): 0.077 ppm
CSP (LC3B residue L44): 0.080 ppm
CSP (LC3B residue L47): 0.391 ppm
CSP (LC3B residue L53): 0.260 ppm
CSP (LC3B residue L63): 0.163 ppm
CSP (LC3B residue L71): 0.095 ppm
CSP (LC3B residue L73): 0.103 ppm
CSP (LC3B residue L109): 0.035 ppm
CSP (LC3B residue M01, estimated): 0.020 ppm
CSP (LC3B residue M60): 0.042 ppm
CSP (LC3B residue M111): 0.134 ppm
CSP (LC3B residue N59): 0.559 ppm
CSP (LC3B residue N74): 0.039 ppm
CSP (LC3B residue N76): 0.012 ppm
CSP (LC3B residue P02, estimated): 0.020 ppm
CSP (LC3B residue P28, estimated): 0.020 ppm
CSP (LC3B residue P32, estimated): 0.150 ppm
CSP (LC3B residue P45, estimated): 0.170 ppm
CSP (LC3B residue P55, estimated): 0.150 ppm
CSP (LC3B residue Q09): 0.00263 ppm
CSP (LC3B residue Q15): 0.016 ppm
CSP (LC3B residue Q26): 0.095 ppm
CSP (LC3B residue Q43): 0.037 ppm
CSP (LC3B residue Q72): 0.019 ppm
CSP (LC3B residue Q77): 0.045 ppm
CSP (LC3B residue Q116): 0.027 ppm
CSP (LC3B residue R10): 0.025 ppm
CSP (LC3B residue R11): 0.027 ppm
CSP (LC3B residue R16): 0.021 ppm
CSP (LC3B residue R21): 0.028 ppm
CSP (LC3B residue R24): 0.060 ppm
CSP (LC3B residue R37): 0.107 ppm
CSP (LC3B residue R68): 0.281 ppm
CSP (LC3B residue R69): 0.147 ppm
CSP (LC3B residue R70): 0.122 ppm
CSP (LC3B residue S03, estimated): 0.020 ppm
CSP (LC3B residue S61): 0.163 ppm
CSP (LC3B residue S96): 0.238 ppm
CSP (LC3B residue S101): 0.072 ppm
CSP (LC3B residue S115): 0.019 ppm
CSP (LC3B residue T06): 0.020 ppm
CSP (LC3B residue T12): 0.021 ppm
CSP (LC3B residue T29): 0.015 ppm
CSP (LC3B residue T50): 0.299 ppm
CSP (LC3B residue T118): 0.045 ppm
CSP (LC3B residue V17): 0.022 ppm
CSP (LC3B residue V20): 0.018 ppm
CSP (LC3B residue V33): 0.194 ppm
CSP (LC3B residue V46): 0.270 ppm
CSP (LC3B residue V54): 0.190 ppm
CSP (LC3B residue V58): 0.313 ppm
CSP (LC3B residue V98): 0.081 ppm
CSP (LC3B residue V112): 0.337 ppm
CSP (LC3B residue Y38): 0.061 ppm
CSP (LC3B residue Y99): 0.068 ppm
CSP (LC3B residue Y110): 0.103 ppm
CSP (LC3B residue Y113): 0.148 ppm
CSP induced (M111 HN resonance, molar ratio TH152:LC3B 0.125): 0.01154
CSP induced (M111 HN resonance, molar ratio TH152:LC3B 0.25): 0.02288
CSP induced (M111 HN resonance, molar ratio TH152:LC3B 0.5): 0.0422
CSP induced (M111 HN resonance, molar ratio TH152:LC3B 1): 0.08206
CSP induced (M111 HN resonance, molar ratio TH152:LC3B 2): 0.1192
CSP induced (M111 HN resonance, molar ratio TH152:LC3B 4): 0.1287
CSP induced (S90 HN resonance, molar ratio TH152:LC3B 0.125): 0.02291
CSP induced (S90 HN resonance, molar ratio TH152:LC3B 0.25): 0.03839
CSP induced (S90 HN resonance, molar ratio TH152:LC3B 0.5): 0.1193
CSP induced (S90 HN resonance, molar ratio TH152:LC3B 1): 0.155
CSP induced (S90 HN resonance, molar ratio TH152:LC3B 2): 0.2522
CSP induced (S90 HN resonance, molar ratio TH152:LC3B 4): 0.2665
CSP induced (V33 HN resonance, molar ratio TH152:LC3B 0.125): 0.02123
CSP induced (V33 HN resonance, molar ratio TH152:LC3B 0.25): 0.03832
CSP induced (V33 HN resonance, molar ratio TH152:LC3B 0.5): 0.08102
CSP induced (V33 HN resonance, molar ratio TH152:LC3B 1): 0.1239
CSP induced (V33 HN resonance, molar ratio TH152:LC3B 2): 0.1753
CSP induced (V33 HN resonance, molar ratio TH152:LC3B 4): 0.2006
SMILES: CCCCCCC(Sc1nc(Cl)cc(Nc2nc(-c3ccc(C(=O)O)cc3)cs2)n1)C(=O)O (stereo not shown) [compound 21]
